Measured values published in patent US20240190872A1, “FABI INHIBITORS FOR GRAM-NEGATIVE PATHOGENS” (THE BOARD OF TRUSTEES OF THE UNIVERSITY OF ILLINOIS, priority 2021, published 2024).
Converted amounts (≈) assume the structure as drawn.

Assays:
CYP 2D6 = CYP 2D6 (Homo sapiens (Human), UniProt P10635); assay: biochemical
[1] = tested on: 100 A. baumannii clinical isolates; assay: MIC90 against 100 A. baumannii clinical isolates; format: cell-based; conditions: Acinetobacter baumannii
Experimental: Antimicrobial susceptibility tests. Susceptibility testing was performed in biological triplicate, using the micro-dilution broth method as outlined by the Clinical and Laboratory Standards Institute. Bacteria were cultured with cation-adjusted Muller-Hinton broth (Sigma-Aldrich, Cat# 90922) in round-bottom 96-well plates (Corning, Cat# 3788). Human serum (pooled gender, 0.2 μm filtered) was purchased from BioIVT (Hicksville, NY).

S. aureus ATCC 29213 = assay: Antimicrobial susceptibility test (MIC), micro-dilution broth; format: cell-based; conditions: Staphylococcus aureus, ATCC29213; S. aureus ATCC 29213; read-out: MIC S. aureus 29213
Outline: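 CLSI micro-dilution broth method in cation-adjusted Mueller-Hinton broth, in biological triplicate; human serum (pooled, filtered) was also used.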

Plasma stability [2] = assay: Plasma stability
A. baumannii AR-88 = assay: Neutropenic mouse thigh infection; format: in vivo, female BALB/c mice
Experimental: (§1) FIG. 7. […] A) Neutropenic mouse thigh infection model initiated in female BALB/c mice with A. baumannii AR-88 (1.36×10^5 CFU per mouse intramuscular, left thigh) were treated with vehicle (5 mice) or fabimycin (10 mice) four times a day (75 mg/kg intravenously) and bacterial burden evaluated at 26 h post-infection. B) Neutropenic mouse thigh infection initiated in CD-1 mice with S. aureus USA300 LAC (2.3×10^6 CFU per mouse intramuscular in thigh) were treated with vehicle (8 mice) or FabI inhibitor (8 mice per group) 2 and 7 h post-infection (5 mg/kg retro-orbital IV), and the bacterial burden was evaluated 24 h post-infection.
(§2) With formulation, MTD, and pharmacokinetic data in hand, the efficacy of fabimycin was evaluated in murine infection models. To start, a comparative assessment was made of fabimycin and Debio-1452-NH3 in two murine neutropenic infection models using a dosing regimen that is at the MTD for Debio-1452-NH3 but below the MTD for fabimycin (three doses, intramuscular, at 50 mg/kg).
(§3) Chart 1. Summary of Fabimycin in vivo models.

Plasma stability [3] = assay: Plasma stability; remark: listed apart in the source
K. pneumoniae AR 0066 = assay: microbe, parasite or virus in culture; format: cell-based; conditions: Klebsiella pneumoniae, AR0066, read-out: MIC K. pneumoniae AR 0066, clinical isolate
Outline: (§4)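 Susceptibility values come from triplicate biological repeats of a CLSI-style broth dilution assay using cation-adjusted Mueller-Hinton medium.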

K. pneumoniae AR 0560 = assay: microbe, parasite or virus in culture; format: cell-based; conditions: Klebsiella pneumoniae, AR0560, read-out: MIC K. pneumoniae AR 0560, clinical isolate
Outline: as §4

A. baumannii AR 0313 = assay: microbe, parasite or virus in culture; format: cell-based; conditions: Acinetobacter baumannii, AR0313, read-out: MIC A. baumannii AR 0313, clinical isolate
Outline: as §4

A. baumannii AR 0299 = assay: microbe, parasite or virus in culture; format: cell-based; conditions: Acinetobacter baumannii, AR0299, read-out: MIC A. baumannii AR 0299, clinical isolate
Outline: as §4

A. baumannii AR 0273 = assay: microbe, parasite or virus in culture; format: cell-based; conditions: Acinetobacter baumannii, AR0273, read-out: MIC A. baumannii AR 0273, clinical isolate
Outline: as §4

A. baumannii AR 0033 = assay: microbe, parasite or virus in culture; format: cell-based; conditions: Acinetobacter baumannii, AR0033, read-out: MIC A. baumannii AR 0033, clinical isolate
Outline: as §4

K. pneumoniae AR 0113 = assay: microbe, parasite or virus in culture; format: cell-based; conditions: Klebsiella pneumoniae, AR0113, read-out: MIC K. pneumoniae AR 0113, clinical isolate
Outline: as §4

E. coli AR 0048 = assay: microbe, parasite or virus in culture; format: cell-based; conditions: Escherichia coli, AR0048, read-out: MIC E. coli AR 0048, clinical isolate
Outline: as §4

E. coli AR 0085 = assay: microbe, parasite or virus in culture; format: cell-based; conditions: Escherichia coli, AR0085, read-out: MIC E. coli AR 0085, clinical isolate
Outline: as §4

S. aureus USA300 LAC = assay: Neutropenic mouse thigh infection; format: in vivo, CD-1 mice; conditions: 5 mg/kg, r.o.
Experimental: as §1, with “and the bacterial burden was evaluated 24 h post-infection.” left out
as §2, §3

E. coli ΔtolC (JW5503) = format: cell-based; conditions: efflux deficient E. coli ΔtolC
Outline: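 MICs by CLSI broth microdilution in cation-adjusted Mueller-Hinton broth, performed in biological triplicate. Strains: efflux-deficient E. coli ΔtolC (JW5503, KEIO collection) and K. pneumoniae BAA-2472 (ATCC).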

Chain of CYP 2D6 (P10635 whole entry): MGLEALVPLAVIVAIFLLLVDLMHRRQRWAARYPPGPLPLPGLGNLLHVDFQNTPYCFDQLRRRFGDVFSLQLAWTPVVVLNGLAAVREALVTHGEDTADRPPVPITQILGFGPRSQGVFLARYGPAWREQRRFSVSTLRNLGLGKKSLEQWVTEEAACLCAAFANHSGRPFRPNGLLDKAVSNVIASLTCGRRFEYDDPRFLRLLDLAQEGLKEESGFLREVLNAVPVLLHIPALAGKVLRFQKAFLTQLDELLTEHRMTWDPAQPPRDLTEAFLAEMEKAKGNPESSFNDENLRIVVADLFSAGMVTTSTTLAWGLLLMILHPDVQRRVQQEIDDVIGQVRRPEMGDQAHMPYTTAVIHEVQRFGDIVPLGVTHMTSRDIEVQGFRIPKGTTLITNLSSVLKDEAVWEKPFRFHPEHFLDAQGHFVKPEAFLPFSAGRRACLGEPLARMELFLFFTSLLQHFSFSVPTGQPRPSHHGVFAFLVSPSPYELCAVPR

Structure (SMILES): Cc1c(CN(C)C(=O)/C=C/c2cnc3c(c2)CC[C@H](N)C(=O)N3)oc2ccccc12 [(S)-11, (S,E)-3-(7-amino-8-oxo-6,7,8,9-tetrahydro-5H-pyrido[2,3-b]azepin-3-yl)-N-methyl-N-((3-methylbenzofuran-2-yl)methyl)acrylamide]
- IC50 (CYP 2D6): 65 µM
- MIC90 [1]: 8 µg/mL (≈ 19.8 µM)
- Plasma stability, t1/2, Mouse: 83 min
- MIC (S. aureus ATCC 29213): 4 ng/mL (≈ 0.00989 µM)
- stability in mouse plasma (in words) (Plasma stability [2]): considerable instability
- log reduction relative to the vehicle (A. baumannii AR-88; 75 mg/kg IV, QID, 26 h): 1.75 log
- reduction of bacterial burden (A. baumannii AR-88; NDM-1 containing A. baumannii, neutropenic thigh): ~2 log(CFU/thigh)
- stability in human plasma (in words) (Plasma stability [3]): excellent stability
- MIC (K. pneumoniae AR 0066): 4 µg/mL (≈ 9.89 µM)
- MIC (K. pneumoniae AR 0560): 4 µg/mL (≈ 9.89 µM)
- MIC (A. baumannii AR 0313): 4 µg/mL (≈ 9.89 µM)
- MIC (A. baumannii AR 0299): 2 µg/mL (≈ 4.94 µM)
- MIC (A. baumannii AR 0273): 4 µg/mL (≈ 9.89 µM)
- MIC (A. baumannii AR 0033): 8 µg/mL (≈ 19.8 µM)
- MIC (K. pneumoniae AR 0113): 4 µg/mL (≈ 9.89 µM)
- MIC (E. coli AR 0048): 2 µg/mL (≈ 4.94 µM)
- MIC (E. coli AR 0085): 1 µg/mL (≈ 2.47 µM)
- log reduction relative to the vehicle (S. aureus USA300 LAC): 2.6 log
- MIC E. coli ΔtolC (E. coli ΔtolC (JW5503)): 0.016 µg/mL (≈ 0.0396 µM)
